Experimental data reported in patent publication US20250034216A1, “STEREOSELECTIVE COVALENT LIGANDS FOR ONCOGENIC AND IMMUNOLOGICAL PROTEINS” (The Scripps Research Institute, priority 2021, published 2025).

What was measured:
Assay in all cases: IA-DTB cysteine engagement
Type in all cases: binding
Conditions in all cases: 22Rv1 cells, 20 μM probe, 1 h, relative to DMSO
MRPS30_C204 = biological target: T1, MRPS30_C204 (Homo sapiens, UniProt Q9NP92)
T1 construct: endogenous in cells; host or cells: 22Rv1
How it was run: (§1)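 Probe-exposed cells were lysed, IA-DTB-labeled, trypsinized and streptavidin-enriched. Multiplexed TMT quantitation gave engagement ratios versus DMSO, with non-tryptic peptides excluded and intensities normalized to median summed signal.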

NT5DC2_C504 = biological target: T2, NT5DC2_C504 (Homo sapiens, UniProt Q9H857)
T2 construct: endogenous in cells; host or cells: 22Rv1
T2 sequence (Q9H857 1-520): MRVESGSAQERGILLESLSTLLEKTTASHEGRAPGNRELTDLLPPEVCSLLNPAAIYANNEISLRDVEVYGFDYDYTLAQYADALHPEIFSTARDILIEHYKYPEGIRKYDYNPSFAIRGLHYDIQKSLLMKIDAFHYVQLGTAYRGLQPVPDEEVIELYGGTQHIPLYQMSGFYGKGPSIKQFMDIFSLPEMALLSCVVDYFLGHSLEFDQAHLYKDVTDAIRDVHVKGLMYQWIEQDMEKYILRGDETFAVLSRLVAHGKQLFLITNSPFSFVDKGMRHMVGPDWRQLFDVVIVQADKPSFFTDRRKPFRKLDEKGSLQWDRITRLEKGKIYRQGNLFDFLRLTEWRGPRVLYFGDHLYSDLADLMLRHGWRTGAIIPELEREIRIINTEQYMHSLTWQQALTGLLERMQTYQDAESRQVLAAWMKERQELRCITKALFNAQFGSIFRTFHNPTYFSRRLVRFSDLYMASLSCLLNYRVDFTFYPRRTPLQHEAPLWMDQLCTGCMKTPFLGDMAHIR
How it was run: as §1

DCTN4_C258 = biological target: T3, DCTN4_C258 (Homo sapiens, UniProt Q9UJW0)
T3 construct: endogenous in cells; host or cells: 22Rv1
How it was run: as §1

KRTCAP3_C197 = biological target: T4, KRTCAP3_C197 (Homo sapiens, UniProt Q53RY4)
T4 construct: endogenous in cells; host or cells: 22Rv1
T4 sequence (Q53RY4 1-240): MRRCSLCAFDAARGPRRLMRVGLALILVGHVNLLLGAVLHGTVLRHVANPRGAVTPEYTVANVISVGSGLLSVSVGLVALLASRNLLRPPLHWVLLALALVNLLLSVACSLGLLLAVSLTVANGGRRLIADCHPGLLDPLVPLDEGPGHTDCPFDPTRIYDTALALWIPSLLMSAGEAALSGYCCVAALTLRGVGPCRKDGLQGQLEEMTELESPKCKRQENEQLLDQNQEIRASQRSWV
How it was run: as §1

HMOX2_C265 = biological target: T5, HMOX2_C265 (Homo sapiens, UniProt P30519)
T5 construct: endogenous in cells; host or cells: 22Rv1
T5 sequence (P30519 1-316): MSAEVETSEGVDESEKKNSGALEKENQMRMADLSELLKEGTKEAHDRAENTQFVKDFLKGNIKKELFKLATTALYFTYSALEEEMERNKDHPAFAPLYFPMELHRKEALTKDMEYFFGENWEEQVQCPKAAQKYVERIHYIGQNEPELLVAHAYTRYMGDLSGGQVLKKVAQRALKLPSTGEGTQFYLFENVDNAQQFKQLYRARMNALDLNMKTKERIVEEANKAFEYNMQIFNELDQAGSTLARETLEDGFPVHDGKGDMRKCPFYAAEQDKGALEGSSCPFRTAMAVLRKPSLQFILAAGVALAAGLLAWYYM
How it was run: as §1

T3 sequence (Q9UJW0 whole entry): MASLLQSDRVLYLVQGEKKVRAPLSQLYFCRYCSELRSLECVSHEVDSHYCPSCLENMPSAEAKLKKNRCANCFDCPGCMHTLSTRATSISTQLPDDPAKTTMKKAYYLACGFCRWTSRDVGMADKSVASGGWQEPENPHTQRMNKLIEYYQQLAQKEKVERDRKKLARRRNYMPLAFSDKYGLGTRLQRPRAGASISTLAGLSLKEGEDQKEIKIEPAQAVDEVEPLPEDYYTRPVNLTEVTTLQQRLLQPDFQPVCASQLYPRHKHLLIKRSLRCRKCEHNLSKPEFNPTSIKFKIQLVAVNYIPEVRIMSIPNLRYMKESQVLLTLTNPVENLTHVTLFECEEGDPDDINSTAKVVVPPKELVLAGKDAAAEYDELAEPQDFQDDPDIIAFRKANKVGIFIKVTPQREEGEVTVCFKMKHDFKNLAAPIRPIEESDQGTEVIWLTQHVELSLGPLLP

Row | SMILES | % engagement MRPS30_C204 (MRPS30_C204) [%] | % engagement NT5DC2_C504 (NT5DC2_C504) [%] | % engagement DCTN4_C258 (DCTN4_C258) [%] | % engagement KRTCAP3_C197 (KRTCAP3_C197) [%] | % engagement HMOX2_C265 (HMOX2_C265) [%]
1 | C=CC(=O)N1C[C@H](c2ccc(Br)cc2)[C@H]1C(=O)Nc1cccc2cccnc12 [MY-3A, (2S,3S)-1-acryloyl-3-(4-bromophenyl)-N-(quinolin-8-yl)azetidine-2-carboxamide] | 1 | 54.5 | 15.5 | 31 | 71.75
2 | C=CC(=O)N1C[C@@H](c2ccc(Br)cc2)[C@H]1C(=O)Nc1cccc2cccnc12 [MY-1A, (2S,3R)-1-acryloyl-3-(4-bromophenyl)-N-(quinolin-8-yl)azetidine-2-carboxamide] | 74.5 | 85.5 | 27.5 | 61 | 72.5
3 | C=CC(=O)N1C[C@H](c2ccc(Br)cc2)[C@@H]1C(=O)Nc1cccc2cccnc12 [MY-1B, (2R,3S)-1-acryloyl-3-(4-bromophenyl)-N-(quinolin-8-yl)azetidine-2-carboxamide] | −37 | 75 | 68 | 69.5 | 73.5
4 | C=CC(=O)N1C[C@H](c2ccc(Br)cc2)[C@H]1C(=O)Nc1cccc2cccnc12 [MY-3B, (2S,3S)-1-acryloyl-3-(4-bromophenyl)-N-(quinolin-8-yl)azetidine-2-carboxamide] | −41.5 | 59 | 31.5 | 54 | 79.5
